Results: patent US8063025B2, “Nucleoside prodrugs and uses thereof” (Metabasis Therapeutics, Inc., priority 2007, dated 2011)
Like-named read-outs stand apart in the source and are kept apart here. Values belong to the compound of their own block, whether it stands above or below them.

What was measured:
[1] = molecular target: T1, HCV polymerase (NS5B570n-Con1) (Hepatitis C virus genotype 1b, UniProt Q9WMX2); assay: HCV NS5B RNA polymerase activity; type: biochemical, HCV Con1 strain
T1 construct: contains a 21 amino acid deletion at the C-terminus relative to the full-length HCV polymerase; 6-histidine (N); made in house; host or cells: E. coli BL21 (DE) pLysS, plasmid pET17b
Procedure: The enzymatic activity of HCV polymerase (NS5B570n-Con1) was measured as the incorporation of radiolabeled nucleotide monophosphates into acid insoluble RNA products. Unincorporated radiolabeled substrate was removed by filtration and scintillant was added to the washed and dried filter plate containing radiolabeled RNA product. The amount of RNA product generated by NS5B570-Con1 at the end of the reaction was directly proportional to the amount of light emitted by the scintillant.
The N-terminal 6-histidine tagged HCV polymerase, derived from HCV Con1 strain, genotype 1b (NS5B570n-Con1) contains a 21 amino acid deletion at the C-terminus relative to the full-length HCV polymerase and was purified from E. coli strain BL21 (DE) pLysS. The construct, containing the coding sequence of HCV NS5B Con1 (GenBank accession number AJ242654) was inserted into the plasmid construct pET17b, downstream of a T7 promoter expression cassette and transformed into E. coli. […]
The amount of light emitted from the scintillant was converted to counts per minute (CPM) on a Topcount® plate reader (Perkin-Elmer, Energy Range: Low, Efficiency Mode: Normal, Count Time: 1 min, Background Subtract: none, Cross talk reduction: Off).
Data was analyzed in Excel® (Microsoft®) and ActivityBase® (Idbs®). […] All data was expressed as a percentage of the positive control. […]

[2] = test system: hepatitis C virus replicon; settings: cited from earlier work
[3] = test system: rat hepatocytes; assay: NTP generation in rat hepatocytes; type: in vitro ADME, male Wistar rats; settings: for Rat hepatocyte NTP: Table 2
Procedure: Hepatocytes were prepared from male Wistar rats (250-300 g) according to the procedure of Berry and Friend (Berry, M. N.; Friend, D. S. J. Cell Biol. 1969, 43, 506-520) as modified by Groen (Groen, A. K.; Sips, H. J.; Vervoom, R. C.; Tager, J. M. Eur. J. Biochem. 1982, 122, 87-93). Hepatocytes (20 mg/mL wet weight, >85% trypan blue viability) were incubated at 37° C. in 2 mL of Krebs-bicarbonate buffer containing 20 mM glucose, and 1 mg/mL BSA for 2 h in the presence of 10 μM nucleoside or prodrug (from 10 mM stock solutions in DMSO, n>4).
Following the incubation of 4′-azidocytidine analogues, 1600 μL aliquot of the cell suspension was centrifuged and 300 μL of acetonitrile was added to the pellet, vortexed and sonicated until the pellet broke down. Then 200 μL of water was added to make a 60% acetonitrile solution. After 10 min centrifugation at 14,000 rpm, the resulting supernatant was transferred to a new vial and evaporated to near dryness in a Savant SpeedVac Plus at room temperature. The dried residue was reconstituted with 200 μL of water and the mixture was centrifuged for 10 min at 14,000 rpm. A mixture of 35 μL aliquot of supernatant and 35 μL of mobile phase A (20 mM N—N-dimethylhexylamine and 10 mM propionic acid in 20% methanol) was analyzed by LC-MS/MS (Applied Biosystems, API 4000) equipped with an Agilent 1100 binary pump and a LEAP injector. NTP was detected by using MS/MS mode (M-/78.8) and quantified based on comparison to a standard of 2′-C-methyladenosine-5′-triphosphate for 4′-azidocytidine and the compound described in Example 1.
Following incubation of the 4′-azidouridine analogues, 1600 μL aliquot of the cell suspension was centrifuged and 500 μL of acetonitrile containing 0.1 mg/mL dicyclohexylcarbodiimide (DCCD) and 0.1% ammonium hydroxide was added to the pellet and vigorously mixed by vortexing. Liver extracts were analyzed by LC-MS/MS using a Luna NH2 column (5 micron, 2×50 mm, Phenomenex) fitted with a SecurityGuard C18 guard column (5 micron, 4.0×2.0 mm, Phenomenex) and eluted with a gradient from mobile phase A (10 mM ammonium acetate in 50% acetonitrile) to B (1 mM ammonium acetate in 50% acetonitrile containing 1% concentrated ammonium hydroxide) at a flow rate of 0.6 mL/min. The injector temperature was set at 4° C. 4′-AUMP, 4′-AUDP, and […] were detected using the MS/MS mode (364.1/150.8 for 4′-AUMP, 444.1/176.8 for 4′-AUDP, and 524.1/158.9 for 4′-AUTP) and quantified by comparison of peak areas to standard curves obtained by spiking known concentrations of the analytes to blank liver extract.

[4] = Evaluation of liver NTP levels in rat; type: in vivo, Sprague-Dawley or Wistar rats; settings: i.v. administration as printed
[5] = Rat portal vein pharmacokinetic study; parameters: species or system Male Hanover-Wistar (HW) rats; settings: in vivo, 7 mg/kg
Procedure: Pharmacokinetic analysis of the esters was carried out as described in Example 2. The calculated value for % Fhepatic is the ratio of measured of the quantity present in the post-hepatic
[formula] circulation (AUCjugular) to the pre-hepatic concentration (AUCportal). This value reflects uptake of the prodrug by hepatocytes. […] These values reflect observed concentrations of non-esterified drug phosphate 26a. The calculated value % Fgut is the ratio of the concentration
[formula] of 26a observed in the portal vein which directly reflects absorption through the gut compared to the concentration observed in the jugular vein after i.v. administration of the same dose. Increased absorption through the gut will increase the observed % Fgut.
Male Hanover-Wistar (HW) rats were obtained from Charles River Laboratories (Wilmington, Mass.). […] Plasma samples were extracted by protein precipitation and analyzed by liquid chromatography coupled to tandem mass spectrometry (LC/MS/MS) for concentrations of 26b, 26a and 20.
Pharmacokinetic parameters were calculated using a non-compartmental model in Watson software (Watson, Thermo Fisher, Waltham, Mass.). % Fhepatic was calculated from the dose-normalized area under the curve (AUC) values obtained from sampling either the portal or jugular vein after PO administration as follows: […]

[6] = test system: HCV; settings: phase 2 study, 1500 mg BID for 14 days; cited from earlier work
[7] = test system: HCV; settings: chimpanzee, 7 days, cited from earlier work

Compound: [N-]=[N+]=N[C@]1(COP(=O)(O)O)O[C@@H](n2ccc(=O)[nH]c2=O)[C@H](O)[C@@H]1O [4′-AU monophosphate]
IC50 [1]: 0.218 µM

Compound: [N-]=[N+]=N[C@]1(CO)O[C@@H](n2ccc(=O)[nH]c2=O)[C@H](O)[C@@H]1O [4′-azidouridine]
EC50 [2]: > 100 µM
potency in the cell-based replicon assay [2]: inactive
Rat hepatocyte NTP ([3]; 10 μM): <LOQ

NTP levels after administration to a rat [4]: very low levels
nucleoside triphosphate levels in treated rat hepatocytes [3]: dose dependent increase
Compound: [N-]=[N+]=N[C@]1(CO[P@@]2(=O)OCC[C@@H](c3cccc(Cl)c3)O2)O[C@@H](n2ccc(N)nc2=O)[C@H](O)[C@@H]1O [Example 1, 4′-azido-cis-5′-O-[4-(S)-(3-chlorophenyl)-2-oxo-1,3,2-dioxaphosphorinan-2-yl]-cytidine]

NTP levels after administration to a rat [4]: elevated levels
nucleoside triphosphate levels in treated rat hepatocytes [3]: dose dependent increase
Compound: [N-]=[N+]=N[C@]1(CO[P@@]2(=O)OCC[C@@H](c3cccc(Cl)c3)O2)O[C@@H](n2ccc(=O)[nH]c2=O)[C@H](O)[C@@H]1O [Example 2, 4′-azido-cis-5′-O-[4-(S)-(3-Chlorophenyl)-2-oxo-1,3,2-dioxaphosphorinan-2-yl]uridine]

circulating diester after oral dosing [5]: no circulating diester is observed
Compound: [N-]=[N+]=N[C@]1(COP2(=O)OCC[C@@H](c3ccc(Br)cc3F)O2)O[C@@H](n2ccc(=O)[nH]c2=O)[C@H](O)[C@@H]1O (some centres unmarked) [Example 43]

Compound: C[C@H](NP(=O)(OC[C@@]1(N=[N+]=[N-])O[C@@H](n2ccc(=O)[nH]c2=O)[C@H](O)[C@@H]1O)Oc1cccc2ccccc12)C(=O)OCc1ccccc1 (some centres unmarked) [Example R0142]
EC50 [2]: 0.22 µM

Compound: [N-]=[N+]=N[C@]1(CO)O[C@@H](n2ccc(N)nc2=O)[C@H](O)[C@@H]1O [Example R1479, 4′-azidocytidine]
EC50 [2]: 1.28 µM
potency in the cell-based replicon assay [2]: reasonable potency
Rat hepatocyte NTP ([3]; 10 μM): <LOQ
nmol NTP/g @ 10 μM (±SEM) ([3]; rat hepatocytes, 10 μM, 2 h, Table 4): <LOQ

Compound: CC(C)C(=O)OC[C@@]1(N=[N+]=[N-])O[C@@H](n2ccc(N)nc2=O)[C@H](OC(=O)C(C)C)[C@@H]1OC(=O)C(C)C [Example R1626]
mean reduction in serum viral titer [6]: 1.2 log10

Compound: C[C@@]1(O)[C@H](O)[C@@H](CO)O[C@H]1n1ccc2c(N)ncnc21 [MK-0608]
reduction in viral titer ([7]; intravenous dose of 2 mg/kg/day): > 5 log10

Compound: CC(C)C(N)C(=O)O[C@@H]1[C@@H](CO)O[C@@H](n2ccc(N)nc2=O)[C@]1(C)O (some centres unmarked) [NM283]
reduction in viral titer ([7]; 16.6 mg/kg/day): 1.15 log10
